C[C@@H]1O[C@@H](O[C@H]2[C@H](Oc3cc(O)c(C(=O)CCc4ccc(O)cc4)c(O)c3)O[C@H](CO)[C@@H](O)[C@@H]2O)[C@H](O)[C@H](O)[C@H]1O
solubility (mole fraction)
Conditions	298.15 K	308.15 K	318.15 K	328.15 K	338.15 K
in ethyl acetate	0.00031	0.000369	0.000491	0.000668	0.000776
in water	2.13e-05	3.78e-05	7.12e-05	0.000166	0.000375
